The NIST ThermoML archive (doi:10.1021/je900387e)

Assay: xn = mol fraction of the nth substance listed
Conditions: Liquid, Pycnometric method

CCCCBr [1-bromobutane] + O=C=O
Conditions | mass density [kg/m3]
332.4 K, 10370 kPa, x1 = 0.1495 | 915
332.4 K, 10440 kPa, x1 = 0.0461 | 587
332.4 K, 10440 kPa, x1 = 0.0683 | 677
332.4 K, 10510 kPa, x1 = 0.0989 | 783
332.4 K, 10520 kPa, x1 = 0.0461 | 595
332.4 K, 10560 kPa, x1 = 0.1495 | 918
332.4 K, 10570 kPa, x1 = 0.0683 | 686
332.4 K, 10590 kPa, x1 = 0.0461 | 603
332.4 K, 10650 kPa, x1 = 0.0989 | 788
332.4 K, 10710 kPa, x1 = 0.0683 | 694
332.4 K, 10720 kPa, x1 = 0.0461 | 615
332.4 K, 10750 kPa, x1 = 0.1495 | 921
332.4 K, 10820 kPa, x1 = 0.0989 | 793
332.4 K, 10870 kPa, x1 = 0.0683 | 703
332.4 K, 10880 kPa, x1 = 0.0461 | 627
332.4 K, 10940 kPa, x1 = 0.1495 | 924
332.4 K, 10990 kPa, x1 = 0.0989 | 798
332.4 K, 11050 kPa, x1 = 0.0683 | 712
332.4 K, 11070 kPa, x1 = 0.0461 | 640
332.4 K, 11120 kPa, x1 = 0.1495 | 927
332.4 K, 11180 kPa, x1 = 0.0989 | 804
332.4 K, 11240 kPa, x1 = 0.0683 | 721
332.4 K, 11270 kPa, x1 = 0.0461 | 654
332.4 K, 11310 kPa, x1 = 0.1495 | 930
332.4 K, 11390 kPa, x1 = 0.0989 | 808
332.4 K, 11460 kPa, x1 = 0.0683 | 730
332.4 K, 11510 kPa, x1 = 0.0461 | 668
332.4 K, 11530 kPa, x1 = 0.1495 | 933
332.4 K, 11600 kPa, x1 = 0.0989 | 814
332.4 K, 11720 kPa, x1 = 0.0683 | 739
332.4 K, 11730 kPa, x1 = 0.1495 | 936
332.4 K, 11780 kPa, x1 = 0.0461 | 683
332.4 K, 11830 kPa, x1 = 0.0989 | 819
332.4 K, 11970 kPa, x1 = 0.1495 | 939
332.4 K, 11980 kPa, x1 = 0.0461 | 689
332.4 K, 12000 kPa, x1 = 0.0683 | 749
332.4 K, 12060 kPa, x1 = 0.0989 | 825
332.4 K, 12190 kPa, x1 = 0.1495 | 942
332.4 K, 12220 kPa, x1 = 0.0461 | 703
332.4 K, 12330 kPa, x1 = 0.0461 | 708
332.4 K, 12330 kPa, x1 = 0.0683 | 759
332.4 K, 12330 kPa, x1 = 0.0989 | 830
332.4 K, 12450 kPa, x1 = 0.1495 | 945
332.4 K, 12620 kPa, x1 = 0.0989 | 836
332.4 K, 12650 kPa, x1 = 0.1495 | 948
332.4 K, 12670 kPa, x1 = 0.0683 | 770
332.4 K, 12920 kPa, x1 = 0.1495 | 951
332.4 K, 12930 kPa, x1 = 0.0989 | 842
332.4 K, 13080 kPa, x1 = 0.0683 | 780
332.4 K, 13170 kPa, x1 = 0.1495 | 954
332.4 K, 13250 kPa, x1 = 0.0989 | 847
332.4 K, 13470 kPa, x1 = 0.1495 | 958
332.4 K, 13540 kPa, x1 = 0.0683 | 791
332.4 K, 13600 kPa, x1 = 0.0989 | 853
332.4 K, 13750 kPa, x1 = 0.1495 | 961
332.4 K, 13980 kPa, x1 = 0.0989 | 859
332.4 K, 14040 kPa, x1 = 0.1495 | 964
332.4 K, 14050 kPa, x1 = 0.0683 | 802
332.4 K, 14320 kPa, x1 = 0.1495 | 967
332.4 K, 14360 kPa, x1 = 0.0989 | 865
332.4 K, 14630 kPa, x1 = 0.1495 | 970
332.4 K, 14640 kPa, x1 = 0.0683 | 814
332.4 K, 14810 kPa, x1 = 0.0989 | 871
332.4 K, 14910 kPa, x1 = 0.1495 | 973
332.4 K, 14960 kPa, x1 = 0.0683 | 820
332.4 K, 15090 kPa, x1 = 0.1495 | 975
335.9 K, 10180 kPa, x1 = 0.0683 | 589
335.9 K, 10200 kPa, x1 = 0.0683 | 591
335.9 K, 10210 kPa, x1 = 0.0683 | 593
335.9 K, 10240 kPa, x1 = 0.0683 | 597
335.9 K, 10250 kPa, x1 = 0.0683 | 601
335.9 K, 10310 kPa, x1 = 0.0683 | 607
335.9 K, 10380 kPa, x1 = 0.0683 | 614
335.9 K, 10450 kPa, x1 = 0.0683 | 620
335.9 K, 10540 kPa, x1 = 0.0683 | 627
335.9 K, 10610 kPa, x1 = 0.0683 | 634
335.9 K, 10700 kPa, x1 = 0.0683 | 641
335.9 K, 10790 kPa, x1 = 0.0683 | 649
335.9 K, 10940 kPa, x1 = 0.0683 | 660
335.9 K, 11140 kPa, x1 = 0.0683 | 672
335.9 K, 11350 kPa, x1 = 0.0683 | 684
335.9 K, 11590 kPa, x1 = 0.0683 | 697
335.9 K, 11870 kPa, x1 = 0.0683 | 710
335.9 K, 12340 kPa, x1 = 0.0683 | 728
335.9 K, 12930 kPa, x1 = 0.0683 | 747
335.9 K, 13690 kPa, x1 = 0.0683 | 767
335.9 K, 14350 kPa, x1 = 0.0683 | 783
335.9 K, 14890 kPa, x1 = 0.0683 | 794
335.9 K, 14990 kPa, x1 = 0.0683 | 797
335.9 K, 15110 kPa, x1 = 0.0683 | 800
337.4 K, 10000 kPa, x1 = 0.1495 | 872
337.4 K, 10190 kPa, x1 = 0.1495 | 876
337.4 K, 10210 kPa, x1 = 0.0461 | 479
337.4 K, 10240 kPa, x1 = 0.0989 | 714
